Data: patent EP1200395B1, “UREA DERIVATIVES AS INHIBITORS OF CCR-3 RECEPTOR” (KIRIN BEER KABUSHIKI KAISHA, priority 1999, dated 2001)

Target: T1, CCR-3 (Homo sapiens, UniProt P51677)
T1 sequence (P51677 1-355): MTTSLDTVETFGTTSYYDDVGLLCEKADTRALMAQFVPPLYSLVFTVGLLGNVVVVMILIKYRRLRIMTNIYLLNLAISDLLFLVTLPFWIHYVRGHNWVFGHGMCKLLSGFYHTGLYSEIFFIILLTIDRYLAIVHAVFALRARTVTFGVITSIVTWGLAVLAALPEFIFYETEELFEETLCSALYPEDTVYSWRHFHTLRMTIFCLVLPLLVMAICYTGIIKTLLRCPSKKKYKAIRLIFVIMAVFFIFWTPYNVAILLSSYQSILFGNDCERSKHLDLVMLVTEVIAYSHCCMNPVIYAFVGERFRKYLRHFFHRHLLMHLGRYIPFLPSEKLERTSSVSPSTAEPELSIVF
Assay: Eotaxin-induced chemotaxis of CCR-3 transfectant cells (CCR3/U937)
Format: cell-based
Set-up: expressed in transfected cells; host or cells: U937
Details: test compound 0.1 µg/ml; eotaxin 1 x 10^-9 M; CCR3/U937 transfectants; 37 °C, 1 hour

Structure (SMILES)	Chemotaxis Assay 0.1 µg/ml (inhibition %)
CC[N+](CCF)(CCCNC(=O)Nc1ccc(Cl)c(Cl)c1)CCc1ccccc1.[I-] (stereo not shown) [compound 370]	64%
CC[N+](CCF)(CCCNC(=O)Nc1ccc(Cl)c(Cl)c1)CCc1cccc(F)c1.[I-] (stereo not shown) [compound 371]	86%
CC[N+](CC#N)(CCCNC(=O)Nc1ccc(Br)cc1)CCc1cccc(Cl)c1.[I-] (stereo not shown) [compound 372]	76%
CC[N+](CCCNC(=O)Nc1ccc(Br)cc1)(CCOCCOC)CCc1cccc(Cl)c1.[I-] (stereo not shown) [compound 373]	100%
CC[N+](CCCNC(=O)Nc1ccc(Br)cc1)(CCOCCOC)CCc1ccc(Cl)cc1Cl.[I-] (stereo not shown) [compound 374]	100%
CC[N+](CCCNC(=O)Nc1ccc(Br)cc1)(CCOCCOC)CCc1cccc(F)c1.[I-] (stereo not shown) [compound 375]	91%
CC[N+](CCCNC(=O)Nc1ccc(Br)cc1)(CCc1cccc(Cl)c1)CC1CCC1.[I-] (stereo not shown) [compound 376]	87%
CC[N+](CCCNC(=O)Nc1ccc(Br)cc1)(CCc1ccc(Cl)c(Cl)c1)CC1CCC1.[I-] (stereo not shown) [compound 377]	46%
C=C(C)C[N+](CC)(CCCNC(=O)Nc1ccc(Br)cc1)CCc1cccc(Cl)c1.[I-] (stereo not shown) [compound 378]	81%
CCC(CC)C[N+](CC)(CCCNC(=O)Nc1ccc(Br)cc1)CCc1cccc(Cl)c1.[I-] (stereo not shown) [compound 379]	80%
CCC(CC)C[N+](CC)(CCCNC(=O)Nc1ccc(Br)cc1)CCc1ccc(Cl)c(Cl)c1.[I-] (stereo not shown) [compound 380]	46%
CC[N+](CCF)(CCCNC(=O)Nc1ccc(Br)cc1)CCc1ccc(Cl)cc1.[I-] (stereo not shown) [compound 381]	68%
CC[N+](CCF)(CCCNC(=O)Nc1ccc(Br)cc1)CCc1cccc(Cl)c1.[I-] (stereo not shown) [compound 382]	98%
CC[N+](CCF)(CCCNC(=O)Nc1ccc(Br)cc1)CCc1ccc(Cl)cc1Cl.[I-] (stereo not shown) [compound 383]	43%
CC[N+](CCF)(CCCNC(=O)Nc1ccc(Br)cc1)CCc1ccc(Cl)c(Cl)c1.[I-] (stereo not shown) [compound 384]	76%
CC[N+](CCF)(CCCNC(=O)Nc1ccc(Br)cc1)CCc1cccc(F)c1.[I-] (stereo not shown) [compound 385]	68%
CC[N+](CCCNC(=O)Nc1ccc(C(F)(F)F)cc1)(CCOCCOC)CCc1ccc(Cl)cc1.[I-] (stereo not shown) [compound 386]	43%
CC[N+](CCCNC(=O)Nc1ccc(C(F)(F)F)cc1)(CCOCCOC)CCc1cccc(Cl)c1.[I-] (stereo not shown) [compound 387]	94%
CC[N+](CCCNC(=O)Nc1ccc(C(F)(F)F)cc1)(CCOCCOC)CCc1ccc(Cl)cc1Cl.[I-] (stereo not shown) [compound 388]	56%
CC[N+](CCCNC(=O)Nc1ccc(C(F)(F)F)cc1)(CCOCCOC)CCc1cccc(F)c1.[I-] (stereo not shown) [compound 389]	65%
C=C(C)C[N+](CC)(CCCNC(=O)Nc1ccc(C(F)(F)F)cc1)CCc1cccc(Cl)c1.[I-] (stereo not shown) [compound 390]	51%
CC[N+](CCF)(CCCNC(=O)Nc1ccc(C(F)(F)F)cc1)CCc1cccc(Cl)c1.[I-] (stereo not shown) [compound 391]	47%
CC[N+](CCCNC(=O)Nc1ccc(C#N)cc1)(CCOCCOC)CCc1cccc(OC)c1.[I-] (stereo not shown) [compound 392]	45%
CCC(CC)C[N+](CC)(CCCNC(=O)Nc1ccc(C#N)cc1)CCc1cccc(Cl)c1.[I-] (stereo not shown) [compound 402]	71%
CC[N+](CCF)(CCCNC(=O)Nc1ccc(C#N)cc1)CCc1cccc(Cl)c1.[I-] (stereo not shown) [compound 403]	77%

Structure (SMILES)	Chemotaxis Assay 0.1 µg/ml (inhibition %)
CC[N+](CCF)(CCCNC(=O)Nc1ccc(C#N)cc1)CCc1ccc(Cl)cc1Cl.[I-] (stereo not shown) [compound 404]	47%
CC[N+](CCF)(CCCNC(=O)Nc1ccc(C#N)cc1)CCc1c(Cl)cccc1Cl.[I-] (stereo not shown) [compound 405]	57%
CC[N+](CCCNC(=O)Nc1ccccc1)(CCOCCOC)CCc1cccc(OC)c1.[I-] (stereo not shown) [compound 406]	43%
CC[N+](CCCNC(=O)Nc1ccccc1)(CCc1cccc(Cl)c1)CCC(C)C.[I-] (stereo not shown) [compound 407]	52%
CC[N+](CCCNC(=O)Nc1ccccc1)(CCc1ccc(Cl)c(Cl)c1)CCC(C)C.[I-] (stereo not shown) [compound 408]	74%
CC[N+](CCCNC(=O)Nc1ccccc1)(CCc1ccc(Cl)cc1Cl)CC(N)=O.[I-] (stereo not shown) [compound 409]	53%
CC[N+](CCCNC(=O)Nc1ccccc1)(CCc1ccc(Cl)c(Cl)c1)CC(N)=O.[I-] (stereo not shown) [compound 410]	. 50%
CC[N+](CC#N)(CCCNC(=O)Nc1ccccc1)CCc1cccc(Cl)c1.[I-] (stereo not shown) [compound 411]	42%
CC[N+](CCCNC(=O)Nc1ccccc1)(CCOCCOC)CCc1ccc(Cl)cc1.[I-] (stereo not shown) [compound 412]	84%
CC[N+](CCCNC(=O)Nc1ccccc1)(CCOCCOC)CCc1cccc(Cl)c1.[I-] (stereo not shown) [compound 413]	95%
CC[N+](CCCNC(=O)Nc1ccccc1)(CCOCCOC)CCc1ccc(Cl)cc1Cl.[I-] (stereo not shown) [compound 414]	98%
CC[N+](CCCNC(=O)Nc1ccccc1)(CCOCCOC)CCc1ccc(Cl)c(Cl)c1.[I-] (stereo not shown) [compound 415]	99%
CC[N+](CCCNC(=O)Nc1ccccc1)(CCOCCOC)CCc1cccc(F)c1.[I-] (stereo not shown) [compound 416]	69%
CC[N+](CCCNC(=O)Nc1ccccc1)(CCc1ccc(Cl)cc1)CC1CCC1.[I-] (stereo not shown) [compound 417]	59%
CC[N+](CCCNC(=O)Nc1ccccc1)(CCc1ccc(Cl)cc1Cl)CC1CCC1.[I-] (stereo not shown) [compound 419]	76%
CC[N+](CCCNC(=O)Nc1ccccc1)(CCc1ccc(Cl)c(Cl)c1)CC1CCC1.[I-] (stereo not shown) [compound 420]	99%
CC[N+](CCCNC(=O)Nc1ccccc1)(CCc1cccc(F)c1)CC1CCC1.[I-] (stereo not shown) [compound 421]	66%
C=C(C)C[N+](CC)(CCCNC(=O)Nc1ccccc1)CCc1ccc(Cl)cc1.[I-] (stereo not shown) [compound 422]	42%
C=C(C)C[N+](CC)(CCCNC(=O)Nc1ccccc1)CCc1cccc(Cl)c1.[I-] (stereo not shown) [compound 423]	92%
C=C(C)C[N+](CC)(CCCNC(=O)Nc1ccccc1)CCc1ccc(Cl)cc1Cl.[I-] (stereo not shown) [compound 424]	95%
C=C(C)C[N+](CC)(CCCNC(=O)Nc1ccccc1)CCc1ccc(Cl)c(Cl)c1.[I-] (stereo not shown) [compound 425]	93%
C=C(C)C[N+](CC)(CCCNC(=O)Nc1ccccc1)CCc1ccccc1.[I-] (stereo not shown) [compound 426]	44%
CCC(CC)C[N+](CC)(CCCNC(=O)Nc1ccccc1)CCc1ccc(Cl)cc1.[I-] (stereo not shown) [compound 427]	67%
CCC(CC)C[N+](CC)(CCCNC(=O)Nc1ccccc1)CCc1cccc(Cl)c1.[I-] (stereo not shown) [compound 428]	93%
